# According to patent US20250171431A1, “HETEROCYCLIC INHIBITORS OF IGF-1R FOR TREATMENT OF DISEASE” (HORIZON THERAPEUTICS IRELAND DAC, priority 2023, published 2025):
# Target: IGF-1R (Homo sapiens (Human), UniProt P08069)
# Experiment: Example B-1: IGF-1R Assay (PC3 cells, IGF1 stimulation, AlphaLISA)
# Format: cell-based
# Details: 200 ng/mL IGF1 stimulation, read-out: Biological Activity against IGF-1R IC50
# Outline: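 Readout is AlphaLISA signal from lysed PC3 cells, expressed as % inhibition versus vehicle and EC80 controls and banded by IC50. Before lysis, the cells were starved of serum for 2 h, exposed to 3× serially diluted compound for 2 h, and stimulated for 30 min with 200 ng/mL IGF1 (final).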
# IGF-1R, sequence (P08069 31-1367): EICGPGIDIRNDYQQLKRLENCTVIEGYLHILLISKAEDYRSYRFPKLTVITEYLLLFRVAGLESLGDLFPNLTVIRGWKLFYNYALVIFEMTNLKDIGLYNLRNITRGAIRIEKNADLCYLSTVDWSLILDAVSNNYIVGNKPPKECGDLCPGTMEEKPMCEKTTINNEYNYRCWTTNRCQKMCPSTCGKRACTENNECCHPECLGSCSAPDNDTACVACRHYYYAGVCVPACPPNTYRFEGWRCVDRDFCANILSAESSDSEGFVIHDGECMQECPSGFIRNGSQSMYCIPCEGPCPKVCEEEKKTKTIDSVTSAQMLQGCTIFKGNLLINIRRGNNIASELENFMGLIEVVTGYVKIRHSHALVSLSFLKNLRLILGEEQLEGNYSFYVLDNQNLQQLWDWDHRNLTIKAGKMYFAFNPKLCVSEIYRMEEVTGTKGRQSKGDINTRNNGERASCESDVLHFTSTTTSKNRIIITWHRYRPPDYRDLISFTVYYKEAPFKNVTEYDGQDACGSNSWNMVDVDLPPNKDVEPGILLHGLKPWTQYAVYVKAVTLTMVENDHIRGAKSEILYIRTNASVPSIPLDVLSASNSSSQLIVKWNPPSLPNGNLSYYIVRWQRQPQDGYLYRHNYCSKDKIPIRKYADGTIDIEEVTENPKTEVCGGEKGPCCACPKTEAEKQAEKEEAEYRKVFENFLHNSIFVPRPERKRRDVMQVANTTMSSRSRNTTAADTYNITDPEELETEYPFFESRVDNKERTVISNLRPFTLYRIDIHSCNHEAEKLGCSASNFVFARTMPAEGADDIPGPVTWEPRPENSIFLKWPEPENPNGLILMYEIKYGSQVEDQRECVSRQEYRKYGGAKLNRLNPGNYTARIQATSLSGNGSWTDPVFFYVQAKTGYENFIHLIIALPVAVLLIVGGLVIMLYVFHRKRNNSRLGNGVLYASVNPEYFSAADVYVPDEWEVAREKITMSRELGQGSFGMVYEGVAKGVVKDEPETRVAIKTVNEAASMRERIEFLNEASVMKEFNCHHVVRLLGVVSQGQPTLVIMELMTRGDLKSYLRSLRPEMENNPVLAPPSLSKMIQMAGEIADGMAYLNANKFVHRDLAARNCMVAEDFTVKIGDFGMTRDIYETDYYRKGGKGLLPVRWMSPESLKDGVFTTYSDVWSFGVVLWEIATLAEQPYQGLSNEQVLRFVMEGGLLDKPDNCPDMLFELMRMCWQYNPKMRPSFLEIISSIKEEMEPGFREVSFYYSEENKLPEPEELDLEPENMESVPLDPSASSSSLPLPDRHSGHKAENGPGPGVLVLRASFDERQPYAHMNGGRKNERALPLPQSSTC
row,SMILES,IC50 [nM]
1,"COc1cc(Nc2nccc(Nc3cnc4cc(C5CC5)ccc4c3)n2)ccc1OCCCN1CCCCC1 [Compound 107, 4-(7-cyclopropyl-3-quinolylamino)-2-[3-methoxy-4-(3-piperidinopropoxy)phenylamino]pyrimidine]",≤ 500
2,"COc1cc(Nc2nccc(Nc3cc4ccccc4nc3OC)n2)ccc1OCCCN1CCCCC1 [Compound 108, 2-[3-methoxy-4-(3-piperidinopropoxy)phenylamino]-4-(2-methoxy-3-quinolylamino)pyrimidine]",≤ 500
3,"COc1cc(Nc2nccc(Nc3cc4ccc(Cl)cc4[nH]c3=O)n2)ccc1O[C@H]1C[C@H](N(C)C)C1 [Compound 110, 7-chloro-3-(2-{3-methoxy-4-[(1r,3r)-3-(dimethylamino)cyclobutoxy]phenyl-amino}-4-pyrimidinylamino)-1,2-dihydro-2-quinolinone]",≤ 500
4,COc1cc(Nc2nccc(Nc3cc4cc(Br)ccc4[nH]c3=O)n2)ccc1O[C@H]1C[C@H](N(C)C)C1 [Compound 111],≤ 500
5,"COc1cc(Nc2nccc(Nc3cc4cccc(Cl)c4[nH]c3=O)n2)ccc1O[C@H]1C[C@H](N(C)C)C1 [Compound 112, 8-chloro-3-(2-{3-methoxy-4-[(1r,3r)-3-(dimethylamino)cyclobutoxy]phenyl-amino}-4-pyrimidinylamino)-1,2-dihydro-2-quinolinone]",≤ 500
6,"COc1cc(Nc2nccc(Nc3cnc4c(F)cc(F)cc4c3)n2)ccc1O[C@H]1C[C@@H](N(C)C)C1 [Compound 113, 4-(6,8-difluoro-3-quinolylamino)-2-{3-methoxy-4-[(1s,3s)-3-(dimethylamino)cyclobutoxy]phenylamino}pyrimidine]",≤ 500
7,"COc1cc(Nc2nccc(Nc3cnc4c(F)cc(Cl)cc4c3)n2)ccc1O[C@H]1C[C@@H](N(C)C)C1 [Compound 114, 4-(6-chloro-8-fluoro-3-quinolylamino)-2-{3-methoxy-4-[(1s,3s)-3-(dimethylamino)cyclobutoxy]phenylamino}pyrimidine]",≤ 500
8,"COc1cc(Nc2nccc(Nc3cc4ccc(F)c(F)c4[nH]c3=O)n2)ccc1O[C@H]1C[C@@H](N(C)C)C1 [Compound 117, 7,8-difluoro-3-(2-{3-methoxy-4-[(1s,3s)-3-(dimethylamino)cyclobutoxy]phenyl-amino}-4-pyrimidinylamino)-1,2-dihydro-2-quinolinone]",≤ 500
9,"COc1cc(Nc2nccc(Nc3cnc4cc(F)cc(F)c4c3)n2)ccc1O[C@H]1C[C@@H](N(C)C)C1 [Compound 118, 4-(5,7-difluoro-3-quinolylamino)-2-{3-methoxy-4-[(1s,3s)-3-(dimethylamino)cyclobutoxy]phenylamino}pyrimidine]",≤ 500
10,"COc1cc(Nc2nccc(Nc3cc4cc(F)c(F)cc4[nH]c3=O)n2)ccc1O[C@H]1C[C@@H](N(C)C)C1 [Compound 119, 6,7-difluoro-3-(2-{3-methoxy-4-[(1s,3s)-3-(dimethylamino)cyclobutoxy]phenyl-amino}-4-pyrimidinylamino)-1,2-dihydro-2-quinolinone]",≤ 500
11,"COc1cc(Nc2nccc(Nc3cc4cccc(F)c4[nH]c3=O)n2)ccc1O[C@H]1C[C@@H](N(C)C)C1 [Compound 120, 8-fluoro-3-(2-{3-methoxy-4-[(1s,3s)-3-(dimethylamino)cyclobutoxy]phenyl-amino}-4-pyrimidinylamino)-1,2-dihydro-2-quinolinone]",≤ 500
12,"COc1cc(Nc2nccc(Nc3cc4cc(F)ccc4[nH]c3=O)n2)ccc1O[C@H]1C[C@@H](N(C)C)C1 [Compound 121, 6-fluoro-3-(2-{3-methoxy-4-[(1s,3s)-3-(dimethylamino)cyclobutoxy]phenyl-amino}-4-pyrimidinylamino)-1,2-dihydro-2-quinolinone]",≤ 500
13,"COc1cc(Nc2nccc(Nc3cc4ccc(F)cc4[nH]c3=O)n2)ccc1O[C@H]1C[C@@H](N(C)C)C1 [Compound 122, 7-fluoro-3-(2-{3-methoxy-4-[(1s,3s)-3-(dimethylamino)cyclobutoxy]phenyl-amino}-4-pyrimidinylamino)-1,2-dihydro-2-quinolinone]",≤ 500
14,"COc1cc(Nc2nccc(Nc3cnc4ccc(F)c(F)c4c3)n2)ccc1O[C@H]1C[C@@H](N(C)C)C1 [Compound 125, 4-(5,6-difluoro-3-quinolylamino)-2-{3-methoxy-4-[(1s,3s)-3-(dimethylamino)cyclobutoxy]phenylamino}pyrimidine]",≤ 500
15,"COc1cc(Nc2nccc(Nc3cnc4cc(F)c(F)cc4c3)n2)cnc1N1CC2CCC(C1)O2 [Compound 126, 4-(6,7-difluoro-3-quinolylamino)-2-{5-methoxy-6-(8-oxa-3-azabicyclo[3.2.1]oct-3-y1)-3-pyridylamino}pyrimidine]",500 to 2000
16,"COc1cc(Nc2nccc(Nc3cnc4cc(F)c(F)cc4c3)n2)cnc1N1C[C@H]2C[C@@H]1CO2 [Compound 127, 2-(6-{(1R,4R)-2-oxa-5-azabicyclo[2.2.1]hept-5-yl}-5-methoxy-3-pyridylamino)-4-(6,7-difluoro-3-quinolylamino)pyrimidine]",≤ 500

row,SMILES,IC50 [nM]
1,"COc1cc(Nc2nccc(Nc3cnc4ccc(OC(F)(F)F)cc4c3)n2)ccc1O[C@H]1C[C@@H](N(C)C)C1 [Compound 128, N2-(4-((1s,3s)-3-(dimethylamino)cyclobutoxy)-3-methoxyphenyl)-N4-(6-(trifluoromethoxy)quinolin-3-yl)pyrimidine-2,4-diamine]",≤ 500
2,"COc1cc(Nc2nccc(Nc3cnc4ccc(Cl)cc4c3)n2)cnc1O[C@H]1C[C@@H](N(C)C)C1 [Compound 131, N4-(6-chloroquinolin-3-yl)-N2-(6-((1s,3s)-3-(dimethylamino)cyclobutoxy)-5-methoxypyridin-3-yl)pyrimidine-2,4-diamine]",≤ 500
3,"COc1cc(Nc2nccc(Nc3cnc4ccccc4c3)n2)cnc1O[C@H]1C[C@@H](N(C)C)C1 [Compound 132, N2-(6-((1s,3s)-3-(dimethylamino)cyclobutoxy)-5-methoxypyridin-3-yl)-N4-(quinolin-3-yl)pyrimidine-2,4-diamine]",≤ 500
4,"CN(C)CC(=O)N1CCc2cc(Nc3nccc(Nc4cc5cccc(F)c5[nH]c4=O)n3)ccc21 [Compound 151, 3-((2-((1-(dimethylglycyl)indolin-5-yl)amino)pyrimidin-4-yl)amino)-8-fluoroquinolin-2(1H)-one]",≤ 500
5,"COc1cc(Nc2nccc(Nc3cnc4cc(F)c(F)cc4c3)n2)c(C)cc1O[C@H]1C[C@@H](N(C)C)C1 [Compound 154, N4-(6,7-difluoroquinolin-3-yl)-N2-(4-((1s,3s)-3-(dimethylamino)cyclobutoxy)-5-methoxy-2-methylphenyl)pyrimidine-2,4-diamine]",≤ 500
6,"COc1cc(Nc2nccc(Nc3cnc4cc(F)c(F)cc4c3)n2)ccc1N1CCC(C)(O)CC1 [Compound 155, 1-(4-((4-((6,7-difluoroquinolin-3-yl)amino)pyrimidin-2-yl)amino)-2-methoxyphenyl)-4-methylpiperidin-4-ol]",≤ 500
7,"COc1cc(Nc2nccc(Nc3cnc4cc(F)c(F)cc4c3)n2)cnc1N1CCC(C)(O)CC1 [Compound 156, 1-(5-((4-((6,7-difluoroquinolin-3-yl)amino)pyrimidin-2-yl)amino)-3-methoxypyridin-2-yl)-4-methylpiperidin-4-ol]",≤ 500
8,"COc1cc(Nc2nccc(Nc3cnc4cc(F)c(F)cc4c3)n2)cnc1N1CCOC(C)(C)C1 [Compound 157, N4-(6,7-difluoroquinolin-3-yl)-N2-(6-(2,2-dimethylmorpholino)-5-methoxypyridin-3-yl)pyrimidine-2,4-diamine]",500 to 2000
9,"COc1cc(Nc2nccc(Nc3cnc4cc(F)c(F)cc4c3)n2)cnc1N1CCS(=N)(=O)CC1 [Compound 158, 4-(5-((4-((6,7-difluoroquinolin-3-yl)amino)pyrimidin-2-yl)amino)-3-methoxypyridin-2-yl)-1-imino-116-thiomorpholine 1-oxide]",500 to 2000
10,"COc1cc(Nc2nccc(Nc3cc4cccc(F)c4[nH]c3=O)n2)cnc1N1CCOC(C)(C)C1 [Compound 160, 3-((2-((6-(2,2-dimethylmorpholino)-5-methoxypyridin-3-yl)amino)pyrimidin-4-yl)amino)-8-fluoroquinolin-2(1H)-one]",≤ 500
11,"COc1cc(Nc2nccc(Nc3cnc4cc(F)c(F)cc4c3)n2)cnc1N1CCS(=O)(=O)CC1 [Compound 161, 4-(5-((4-((6,7-difluoroquinolin-3-yl)amino)pyrimidin-2-yl)amino)-3-methoxypyridin-2-yl)thiomorpholine 1,1-dioxide]",500 to 2000
12,"COc1cc(Nc2nccc(Nc3cnc4ccc(C(F)F)cc4c3)n2)cnc1O[C@H]1C[C@@H](N(C)C)C1 [Compound 163, 4-[6-(difluoromethyl)-3-quinolylamino]-2-{5-methoxy-6-[(1s,3s)-3-(dimethylamino)cyclobutoxy]-3-pyridylamino}pyrimidine]",≤ 500
13,"COc1cc(Nc2nccc(Nc3cc4cccc(F)c4[nH]c3=O)n2)cnc1O[C@@H]1CCN(C)C1 [Compound 165, 3-(2-{6-[(R)-1-methyl-3-pyrrolidinyloxy]-5-methoxy-3-pyridylamino}-4-pyrimidinylamino)-8-fluoro-1,2-dihydro-2-quinolinone]",500 to 2000
14,"COc1cc(Nc2nccc(Nc3cc4cccc(F)c4[nH]c3=O)n2)cnc1O[C@H]1CCN(C)C1 [Compound 166, 3-(2-{6-[(S)-1-methyl-3-pyrrolidinyloxy]-5-methoxy-3-pyridylamino}-4-pyrimidinylamino)-8-fluoro-1,2-dihydro-2-quinolinone]",500 to 2000
15,"COc1cc(Nc2nccc(Nc3cc4cccc(F)c4[nH]c3=O)n2)cnc1OC1CC2(C1)CN(C)C2 [Compound 167, 8-fluoro-3-(2-{5-methoxy-6-(2-methyl-2-aza-6-spiro[3.3]heptyloxy)-3-pyridylamino}-4-pyrimidinylamino)-1,2-dihydro-2-quinolinone]",≤ 500
16,"COc1cc(Nc2nccc(Nc3ccc4ccc(Cl)nc4n3)n2)ccc1O[C@H]1C[C@@H](N(C)C)C1 [Compound 168, N4-(7-chloro-1,8-naphthyridin-2-yl)-N2-(4-((1s,3s)-3-(dimethylamino)cyclobutoxy)-3-methoxyphenyl)pyrimidine-2,4-diamine]",≤ 500
